Data published in ChEMBL document CHEMBL5126640, “Sanggenon C Suppresses Tumorigenesis of Gastric Cancer by Blocking ERK-Drp1-Mediated Mitochondrial Fission” (J Nat Prod, 2022).
The source made the active and inactive calls. The rule behind the calls is not given here.

Experiments:
[1] = tested on: AGS; assay: Antiproliferative activity against human AGS cells assessed as reduction in cell growth measured after 24 hrs by CCK8 assay; format: functional, cell-based
[2] = tested on: HGC-27; assay: Inhibition of colony formation of human HGC-27 cells assessed as reduction in colony number at 0 to 10 uM measured after 24 hrs by crystal violet staining assay; format: functional, cell-based; conditions: dose 0-10 µM
[3] = tested on: HGC-27; assay: Induction of cell cycle arrest in human HGC-27 cells assessed as accumulation of cells at G0/G1 phase at 6 uM incubated for 24 hrs propidium iodide staining-based flow cytometric analysis (reference value: 45.21%); format: functional
[4] = tested on: AGS; assay: Induction of cell cycle arrest in human AGS cells assessed as accumulation of cells at G0/G1 phase at 6 uM incubated for 24 hrs propidium iodide staining-based flow cytometric analysis (reference value: 46.51%); format: functional
[5] = tested on: HGC-27; assay: Induction of apoptosis in human HGC-27 cells assessed as viable cells at 6 uM measured after 24 hrs by AnnexinV-FITC/PI staining based flowcytometry method (reference value: 91.1%); format: functional; conditions: read-out: Activity
[6] = tested on: HGC-27; assay: Induction of apoptosis in human HGC-27 cells assessed as viable cells at 8 uM measured after 24 hrs by AnnexinV-FITC/PI staining based flowcytometry method (reference value: 91.1%); format: functional; conditions: read-out: Activity
[7] = tested on: HGC-27; assay: Induction of apoptosis in human HGC-27 cells assessed as viable cells at 10 uM measured after 24 hrs by AnnexinV-FITC/PI staining based flowcytometry method (reference value: 91.1%); format: functional; conditions: read-out: Activity
[8] = tested on: HGC-27; assay: Induction of apoptosis in human HGC-27 cells assessed as early apoptotic cells at 6 uM measured after 24 hrs by AnnexinV-FITC/PI staining based flowcytometry method (reference value: 3.3%); format: functional
[9] = tested on: HGC-27; assay: Induction of apoptosis in human HGC-27 cells assessed as early apoptotic cells at 10 uM measured after 24 hrs by AnnexinV-FITC/PI staining based flowcytometry method (reference value: 3.3%); format: functional
[10] = tested on: HGC-27; assay: Induction of apoptosis in human HGC-27 cells assessed as late apoptotic cells at 10 uM measured after 24 hrs by AnnexinV-FITC/PI staining based flowcytometry method (reference value: 5.4%); format: functional
[11] = tested on: HGC-27; assay: Induction of apoptosis in human HGC-27 cells assessed as necrotic cells at 6 uM measured after 24 hrs by AnnexinV-FITC/PI staining based flowcytometry method (reference value: 0.2%); format: functional
[12] = tested on: HGC-27; assay: Induction of apoptosis in human HGC-27 cells assessed as necrotic cells at 8 uM measured after 24 hrs by AnnexinV-FITC/PI staining based flowcytometry method (reference value: 0.2%); format: functional
[13] = tested on: AGS; assay: Induction of apoptosis in human AGS cells assessed as viable cells at 6 uM measured after 24 hrs by AnnexinV-FITC/PI staining based flowcytometry method (reference value: 95.2%); format: functional; conditions: read-out: Activity
[14] = tested on: AGS; assay: Induction of apoptosis in human AGS cells assessed as early apoptotic cells at 6 uM measured after 24 hrs by AnnexinV-FITC/PI staining based flowcytometry method (reference value: 1.2%); format: functional
[15] = tested on: AGS; assay: Induction of apoptosis in human AGS cells assessed as early apoptotic cells at 10 uM measured after 24 hrs by AnnexinV-FITC/PI staining based flowcytometry method (reference value: 1.2%); format: functional
[16] = tested on: AGS; assay: Induction of apoptosis in human AGS cells assessed as late apoptotic cells at 10 uM measured after 24 hrs by AnnexinV-FITC/PI staining based flowcytometry method (reference value: 3.4%); format: functional
[17] = tested on: AGS; assay: Induction of apoptosis in human AGS cells assessed as necrotic cells at 6 uM measured after 24 hrs by AnnexinV-FITC/PI staining based flowcytometry method (reference value: 0.2%); format: functional
[18] = tested on: HGC-27; assay: Induction of apoptosis in human HGC-27 cells assessed as increase in cleaved caspase-3 level at 0 to 10 uM by Western blot analysis; format: functional, cell-based; conditions: dose 0-10 µM
[19] = tested on: AGS; assay: Induction of apoptosis in human AGS cells assessed as increase in cleaved caspase-3 level at 0 to 10 uM by Western blot analysis; format: functional, cell-based; conditions: dose 0-10 µM
[20] = tested on: HGC-27; assay: Induction of apoptosis in human HGC-27 cells assessed as downregulation of Bcl-2 level at 0 to 10 uM by Western blot analysis; format: functional, cell-based; conditions: dose 0-10 µM
[21] = tested on: AGS; assay: Induction of apoptosis in human AGS cells assessed as downregulation of Bcl-2 level at 0 to 10 uM by Western blot analysis; format: functional, cell-based; conditions: dose 0-10 µM
[22] = tested on: HGC-27; assay: Induction of apoptosis in human HGC-27 cells assessed as upregulation of Bax level at 0 to 10 uM by Western blot analysis; format: functional, cell-based; conditions: dose 0-10 µM
[23] = tested on: AGS; assay: Induction of apoptosis in human AGS cells assessed as upregulation of Bax level at 0 to 10 uM by Western blot analysis; format: functional, cell-based; conditions: dose 0-10 µM
[24] = tested on: AGS; assay: Induction of apoptosis in human AGS cells assessed as early apoptotic cells measured after 24 hrs by AnnexinV-FITC/PI staining based flow cytometry method (reference value: 2%); format: functional
[25] = tested on: AGS; assay: Inhibition of mitochondrial fission in human AGS cells assessed as downregulation of p-DRP1 at 0 to 10 uM measured after 24 hrs by Western blot analysis; format: functional, cell-based; conditions: dose 0-10 µM
[26] = tested on: AGS; assay: Inhibition of mitochondrial fission in human AGS cells assessed as reduction in ATP content at 0 to 10 uM measured after 24 hrs by microplate reader assay; format: functional, cell-based; conditions: dose 0-10 µM
[27] = tested on: HGC-27; assay: Induction of apoptosis in human HGC-27 cells assessed as late apoptotic cells measured after 24 hrs by AnnexinV-FITC/PI staining based flow cytometry method (reference value: 1.6%); format: functional
[28] = tested on: HGC-27; assay: Induction of apoptosis in human HGC-27 cells transfected with pcDNA3.1-Drp1 plasmid to overexpress DRP1 assessed as early apoptotic cells measured after 24 hrs by AnnexinV-FITC/PI staining based flow cytometry method (reference value: 2.1%); format: functional
[29] = tested on: AGS; assay: Induction of apoptosis in human AGS cells transfected with pcDNA3.1-Drp1 plasmid to overexpress DRP1 assessed as late apoptotic cells and measured after 24 hrs by AnnexinV-FITC/PI staining based flow cytometry method (reference value: 2.1 %); format: functional
[30] = tested on: HGC-27; assay: Inhibition of ERK signalling pathway in human […] cells assessed as downregulation of p-ERK levels at 0 to 10 uM and measured after 24 hrs by western blot analysis; format: cell-based; conditions: dose 0-10 µM
[31] = Toxicity in nude mouse xenografted with human AGS cells assessed as effect on alanine aminotransferase level at 10 to 20 mg/kg, ip administered every other day and monitored every 3 days; format: organism-based; conditions: in vivo, 72 h, dose 10-20 mg/kg, time 3 day
[32] = Toxicity in nude mouse xenografted with human AGS cells assessed as effect on kidney morphology at 10 to 20 mg/kg, ip administered every other day and monitored every 3 days by Hematoxyin-eosin staining based analysis; format: organism-based; conditions: in vivo, 72 h, dose 10-20 mg/kg, time 3 day
[33] = tested on: Mus musculus; assay: In vivo inhibition of ERK signalling pathway in nude mouse xenografted with human AGS cells assessed as downregulation of p-ERK levels at 10 to 20 mg/kg, ip administered every other day and monitored every 3 days by western blot analysis; format: functional, organism-based; conditions: dose 10-20 mg/kg, time 3.0 day
[34] = tested on: AGS; assay: Antitumor activity against human AGS cells xenografted in nude mouse assessed as downregulation of p-DRP1 levels at 10 to 20 mg/kg, ip administered every other day and monitored every 3 days; format: functional, organism-based; conditions: dose 10-20 mg/kg, time 3.0 day

For `CC(C)=CCC12Oc3cc(O)ccc3C1(O)Oc1cc(O)c([C@H]3C=C(C)C[C@H](c4ccc(O)cc4O)[C@H]3C(=O)c3ccc(O)cc3O)c(O)c1C2=O` (some centres undefined), which IC50 [1] is on record?
The IC50 was 9.86 µM.

And the inhibition [2]?
The inhibition was “Active”.

What about the Activity [3] of the same molecule?
The Activity was 61.3%.

And the Activity [4]?
Its Activity is 54.7%.

And the viability at 6 µM [5]?
Its viability at 6 µM is 84.2%.

And the viability at 8 µM [6]?
The viability at 8 µM was 83.1%.

And the viability at 10 µM [7]?
The viability at 10 µM was 72.4%.

What about the Activity [8] of the same molecule?
Its Activity is 4.2%.

What about the Activity [9] of the same molecule?
The Activity was 10.3%.

And the Activity [10]?
The Activity was 15.9%.

And the Activity [11]?
Its Activity is 1.5%.

What about the Activity [12] of the same molecule?
The Activity was 1.8%.

And the viability at 6 µM [13]?
Its viability at 6 µM is 90.1%.

And the Activity [14]?
The Activity was 1.7%.

What about the Activity [15] of the same molecule?
Its Activity is 3.2%.

And the Activity [16]?
The Activity was 15.3%.

What about the Activity [17] of the same molecule?
Its Activity is 0.2%.

What about the Activity [18] of the same molecule?
Its Activity is “Active”.

What about the Activity [19] of the same molecule?
The Activity was “Active”.

And the Activity [20]?
The Activity was “Active”.

And the Activity [21]?
The Activity was “Active”.

And the Activity [22]?
The Activity was “Active”.

And the Activity [23]?
The Activity was “Active”.

And the Activity [24]?
Its Activity is 3.5%.

What about the inhibition [25] of the same molecule?
Its inhibition is “Active”.

What about the inhibition [26] of the same molecule?
Its inhibition is “Active”.

And the Activity [27]?
The Activity was 3.9%.

What about the Activity [28] of the same molecule?
Its Activity is 2.4%.

What about the Activity [29] of the same molecule?
Its Activity is 6.8%.

What about the inhibition [30] of the same molecule?
Its inhibition is “Active”.

What about the Activity [31] of the same molecule?
Its Activity is “Non-Toxic”.

And the Activity [32]?
Its Activity is “Non-Toxic”.

And the inhibition [33]?
Its inhibition is “Active”.

What about the Activity [34] of the same molecule?
Its Activity is “Active”.
